± gives the expanded uncertainty stated by the source.
Experiment: activity coefficient (dimensionless); of the first substance listed, at infinite dilution; xn = mol fraction of the nth substance listed
Conditions: Liquid, Chromatography, x1 = 0

SMILES | activity coefficient (323.15 K) | activity coefficient (333.15 K) | activity coefficient (343.15 K)
CCO [ethanol] + CCCCCCCCn1cc[n+](COCCC)c1C.N#C[N-]C#N | 0.39 ± 0.03 | 0.38 ± 0.03 | 0.38 ± 0.03
CCO [ethanol] + CCCCCCCCn1cc[n+](COCCC)c1C.O=S(=O)([N-]S(=O)(=O)C(F)(F)F)C(F)(F)F | 1.12 ± 0.07 | 1.02 ± 0.06 | 0.94 ± 0.06
CCO [ethanol] + CCCCCCCCn1cc[n+](COCCCOC[n+]2ccn(CCCCCCCC)c2C)c1C.N#C[N-]C#N.N#C[N-]C#N | 0.3 ± 0.03 | 0.29 ± 0.03 | 0.29 ± 0.03
CCO [ethanol] + CCCCCCCCn1cc[n+](COCCCOC[n+]2ccn(CCCCCCCC)c2C)c1C.O=S(=O)([N-]S(=O)(=O)C(F)(F)F)C(F)(F)F.O=S(=O)([N-]S(=O)(=O)C(F)(F)F)C(F)(F)F | 0.64 ± 0.04 | 0.58 ± 0.04 | 0.55 ± 0.04
CCO [ethanol] + CCCOC[n+]1ccc(N(C)C)cc1.O=S(=O)([N-]S(=O)(=O)C(F)(F)F)C(F)(F)F | 1.57 ± 0.1 | 1.47 ± 0.1 | 1.4 ± 0.09
CCO [ethanol] + CCCOC[n+]1ccn(C)c1.F[B-](F)(F)F | 2.1 ± 0.14 | 1.9 ± 0.13 | 1.75 ± 0.12
CCO [ethanol] + CCCOC[n+]1ccn(C)c1.N#C[N-]C#N | 0.74 ± 0.05 | 0.73 ± 0.05 | 0.71 ± 0.05
CCO [ethanol] + CCCOC[n+]1ccn(C)c1.O=S(=O)([N-]S(=O)(=O)C(F)(F)F)C(F)(F)F | 1.51 ± 0.1 | 1.36 ± 0.09 | 1.26 ± 0.08
CCO [ethanol] + CCCOC[n+]1ccn(Cc2ccccc2)c1.F[B-](F)(F)F | 1.65 ± 0.11 | 1.49 ± 0.1 | 1.38 ± 0.09
CCO [ethanol] + CCCOC[n+]1ccn(Cc2ccccc2)c1.N#C[N-]C#N | 0.73 ± 0.05 | 0.6 ± 0.04 | 0.59 ± 0.04
CCO [ethanol] + CN(C)c1cc[n+](COCCCOC[n+]2ccc(N(C)C)cc2)cc1.O=S(=O)([N-]S(=O)(=O)C(F)(F)F)C(F)(F)F.O=S(=O)([N-]S(=O)(=O)C(F)(F)F)C(F)(F)F | 1.21 ± 0.08 | 1.11 ± 0.07 | 1.02 ± 0.06
CCO [ethanol] + Cn1cc[n+](COCCCOC[n+]2ccn(C)c2)c1.N#C[N-]C#N.N#C[N-]C#N | 0.78 ± 0.05 | 0.76 ± 0.05 | 0.72 ± 0.05
CCO [ethanol] + Cn1cc[n+](COCCCOC[n+]2ccn(C)c2)c1.O=S(=O)([N-]S(=O)(=O)C(F)(F)F)C(F)(F)F.O=S(=O)([N-]S(=O)(=O)C(F)(F)F)C(F)(F)F | 1.06 ± 0.07 | 0.96 ± 0.06 | 0.89 ± 0.06
CCO [ethanol] + N#C[N-]C#N.N#C[N-]C#N.c1ccc(Cn2cc[n+](COCCCOC[n+]3ccn(Cc4ccccc4)c3)c2)cc1 | 0.94 ± 0.06 | 0.89 ± 0.06 | 0.86 ± 0.06
CCc1ccccc1 [ethylbenzene] + CCCCCCCCn1cc[n+](COCCC)c1C.N#C[N-]C#N | 1.48 ± 0.1 | 1.5 ± 0.1 | 1.54 ± 0.1
CCc1ccccc1 [ethylbenzene] + CCCCCCCCn1cc[n+](COCCC)c1C.O=S(=O)([N-]S(=O)(=O)C(F)(F)F)C(F)(F)F | 1.01 ± 0.06 | 1.03 ± 0.06 | 1.04 ± 0.07
CCc1ccccc1 [ethylbenzene] + CCCCCCCCn1cc[n+](COCCCOC[n+]2ccn(CCCCCCCC)c2C)c1C.N#C[N-]C#N.N#C[N-]C#N | 1.32 ± 0.09 | 1.34 ± 0.09 | 1.36 ± 0.09
CCc1ccccc1 [ethylbenzene] + CCCCCCCCn1cc[n+](COCCCOC[n+]2ccn(CCCCCCCC)c2C)c1C.O=S(=O)([N-]S(=O)(=O)C(F)(F)F)C(F)(F)F.O=S(=O)([N-]S(=O)(=O)C(F)(F)F)C(F)(F)F | 0.75 ± 0.05 | 0.73 ± 0.05 | 0.74 ± 0.05
CCc1ccccc1 [ethylbenzene] + CCCOC[n+]1ccc(N(C)C)cc1.O=S(=O)([N-]S(=O)(=O)C(F)(F)F)C(F)(F)F | 1.45 ± 0.1 | 1.53 ± 0.1 | 1.53 ± 0.1
CCc1ccccc1 [ethylbenzene] + CCCOC[n+]1ccn(C)c1.F[B-](F)(F)F | 11 ± 0.75 | 10.8 ± 0.74 | 10.7 ± 0.73
CCc1ccccc1 [ethylbenzene] + CCCOC[n+]1ccn(C)c1.N#C[N-]C#N | 6 ± 0.41 | 6.06 ± 0.41 | 6.12 ± 0.42
CCc1ccccc1 [ethylbenzene] + CCCOC[n+]1ccn(C)c1.O=S(=O)([N-]S(=O)(=O)C(F)(F)F)C(F)(F)F | 2.55 ± 0.17 | 2.51 ± 0.17 | 2.51 ± 0.17
CCc1ccccc1 [ethylbenzene] + CCCOC[n+]1ccn(Cc2ccccc2)c1.F[B-](F)(F)F | 4.89 ± 0.33 | 4.71 ± 0.32 | 4.73 ± 0.32

SMILES | activity coefficient (323.15 K) | activity coefficient (333.15 K) | activity coefficient (343.15 K)
CCc1ccccc1 [ethylbenzene] + CCCOC[n+]1ccn(Cc2ccccc2)c1.N#C[N-]C#N | 3.41 ± 0.23 | 3.36 ± 0.23 | 3.32 ± 0.23
CCc1ccccc1 [ethylbenzene] + CCCOC[n+]1ccn(Cc2ccccc2)c1.O=S(=O)([N-]S(=O)(=O)C(F)(F)F)C(F)(F)F | 1.5 ± 0.1 | 1.33 ± 0.09 | 1.32 ± 0.09
CCc1ccccc1 [ethylbenzene] + CN(C)c1cc[n+](COCCCOC[n+]2ccc(N(C)C)cc2)cc1.O=S(=O)([N-]S(=O)(=O)C(F)(F)F)C(F)(F)F.O=S(=O)([N-]S(=O)(=O)C(F)(F)F)C(F)(F)F | 1.46 ± 0.1 | 1.49 ± 0.1 | 1.5 ± 0.1
CCc1ccccc1 [ethylbenzene] + Cn1cc[n+](COCCCOC[n+]2ccn(C)c2)c1.N#C[N-]C#N.N#C[N-]C#N | 11.2 ± 0.77 | 10.9 ± 0.75 | 10.7 ± 0.73
CCc1ccccc1 [ethylbenzene] + Cn1cc[n+](COCCCOC[n+]2ccn(C)c2)c1.O=S(=O)([N-]S(=O)(=O)C(F)(F)F)C(F)(F)F.O=S(=O)([N-]S(=O)(=O)C(F)(F)F)C(F)(F)F | 2.41 ± 0.16 | 2.44 ± 0.17 | 2.38 ± 0.16
CCc1ccccc1 [ethylbenzene] + N#C[N-]C#N.N#C[N-]C#N.c1ccc(Cn2cc[n+](COCCCOC[n+]3ccn(Cc4ccccc4)c3)c2)cc1 | 8.33 ± 0.57 | 8.08 ± 0.55 | 7.78 ± 0.53
CCCCCCC [heptane] + CCCCCCCCn1cc[n+](COCCC)c1C.N#C[N-]C#N | 8.88 ± 0.61 | 8.18 ± 0.56 | 7.95 ± 0.54
CCCCCCC [heptane] + CCCCCCCCn1cc[n+](COCCC)c1C.O=S(=O)([N-]S(=O)(=O)C(F)(F)F)C(F)(F)F | 4.64 ± 0.32 | 4.56 ± 0.31 | 3.98 ± 0.27
CCCCCCC [heptane] + CCCCCCCCn1cc[n+](COCCCOC[n+]2ccn(CCCCCCCC)c2C)c1C.N#C[N-]C#N.N#C[N-]C#N | 11.6 ± 0.79 | 8.65 ± 0.59 | 8.8 ± 0.6
CCCCCCC [heptane] + CCCCCCCCn1cc[n+](COCCCOC[n+]2ccn(CCCCCCCC)c2C)c1C.O=S(=O)([N-]S(=O)(=O)C(F)(F)F)C(F)(F)F.O=S(=O)([N-]S(=O)(=O)C(F)(F)F)C(F)(F)F | 4.67 ± 0.32 | 4.51 ± 0.31 | 4.49 ± 0.31
CCCCCCC [heptane] + CCCOC[n+]1ccc(N(C)C)cc1.O=S(=O)([N-]S(=O)(=O)C(F)(F)F)C(F)(F)F | 15.8 ± 1.1 | 14.8 ± 1 | 13.9 ± 0.95
CCCCCCC [heptane] + CCCOC[n+]1ccn(C)c1.O=S(=O)([N-]S(=O)(=O)C(F)(F)F)C(F)(F)F | 22.9 ± 1.6 | 20.4 ± 1.4 | 17.1 ± 1.2
CCCCCCC [heptane] + CCCOC[n+]1ccn(Cc2ccccc2)c1.N#C[N-]C#N | 48 ± 3.3 | 44.9 ± 3.1 | 41.8 ± 2.9
CCCCCCC [heptane] + CCCOC[n+]1ccn(Cc2ccccc2)c1.O=S(=O)([N-]S(=O)(=O)C(F)(F)F)C(F)(F)F | 12 ± 0.82 | 10.1 ± 0.69 | 9.58 ± 0.65
CCCCCCC [heptane] + CN(C)c1cc[n+](COCCCOC[n+]2ccc(N(C)C)cc2)cc1.O=S(=O)([N-]S(=O)(=O)C(F)(F)F)C(F)(F)F.O=S(=O)([N-]S(=O)(=O)C(F)(F)F)C(F)(F)F | 28.9 ± 2 | 23.3 ± 1.6 | 24.3 ± 1.7
CCCCCCC [heptane] + Cn1cc[n+](COCCCOC[n+]2ccn(C)c2)c1.O=S(=O)([N-]S(=O)(=O)C(F)(F)F)C(F)(F)F.O=S(=O)([N-]S(=O)(=O)C(F)(F)F)C(F)(F)F | 53 ± 3.6 | 34 ± 2.3 | –
C=CCCCC [hex-1-ene] + CCCCCCCCn1cc[n+](COCCC)c1C.N#C[N-]C#N | 4.34 ± 0.3 | 4.37 ± 0.3 | 3.94 ± 0.27
C=CCCCC [hex-1-ene] + CCCCCCCCn1cc[n+](COCCC)c1C.O=S(=O)([N-]S(=O)(=O)C(F)(F)F)C(F)(F)F | 2.65 ± 0.18 | 2.38 ± 0.16 | 2.47 ± 0.17
C=CCCCC [hex-1-ene] + CCCCCCCCn1cc[n+](COCCCOC[n+]2ccn(CCCCCCCC)c2C)c1C.N#C[N-]C#N.N#C[N-]C#N | 4.93 ± 0.34 | 4.41 ± 0.3 | –
C=CCCCC [hex-1-ene] + CCCCCCCCn1cc[n+](COCCCOC[n+]2ccn(CCCCCCCC)c2C)c1C.O=S(=O)([N-]S(=O)(=O)C(F)(F)F)C(F)(F)F.O=S(=O)([N-]S(=O)(=O)C(F)(F)F)C(F)(F)F | 2.33 ± 0.16 | 2.51 ± 0.17 | 2.35 ± 0.16
C=CCCCC [hex-1-ene] + CCCOC[n+]1ccc(N(C)C)cc1.O=S(=O)([N-]S(=O)(=O)C(F)(F)F)C(F)(F)F | 6.62 ± 0.45 | 6.79 ± 0.46 | 5.24 ± 0.36
C=CCCCC [hex-1-ene] + CCCOC[n+]1ccn(C)c1.N#C[N-]C#N | 28 ± 1.9 | – | –
